Laboratory results from patent US4213895A, “N-[N-[N-[ N-[N-(5-Oxo-L-prolyl)-L-histidyl]-L-tryptophyl]-L-seryl]-L-tyrosyl]glycin e azide, an intermediate of the releasing agent of luteinizing hormone (LW) and of follicle stimulating hormone (FSH)” (American Home Products Corporation, priority 1979, dated 1980).

Assays:
LH- and FSH-releasing [1] = experiment: LH- and FSH-releasing activity, radioimmunoassay described by Niswender et al.; details: acid addition salt
Source text: (§1) Exp. Biol. Med., 128, 807 (1968).

[2] = system: induction of ovulation in the rat; experiment: Induction of ovulation in the rat, modification of the assay of Arimura et al., Endocrinology 80, 515; assay type: in vivo; details: acid addition salt
Source text: as §1

LH- and FSH-releasing [3] = experiment: Bioassays, not specified, comparison with the natural hormone; details: diacetate salt
Source text: Said last-named compound (VI) is condensed by means of the azide method via the azide, N-[N-[N-[N-[N-(5-oxo-L-prolyl)-L-histidyl]-L-tryptophyl]-L-seryl]-L-tyrosyl]glycine azide, with N-[N-[N-(N-leucyl)-L-arginyl]-L-prolyl]glycinamide diacetate (V) to yield the desired decapeptide 5-oxo-L-prolyl-L-histidyl-L-tryptophyl-L-seryl-L-tyrosylglycyl-L-leucyl-L- arginyl-L-prolylglycinamide (I) which is isolated in the form of its diacetate salt. The latter salt may be converted, if desired, into a different acid addition salt, e.g. a salt with a pharmaceutically acceptable acid, by treatment with the appropriate ion exchange resin in the manner described by Boissonas et al., Helv. Chim. Acta 43, 1349 (1960). Suitable ion exchange resins are strongly basic anion exchange resins, for example those listed in Greenstein and Winitz "Chemistry of the Amino Acids", Hohn Wiley and Sons, Inc., New York and London 1961, Vol. 2, p. 1456. Basically substituted cross-linked polystyrene resins such as Amerlite IRA-400 or IRA-410 are preferred. The above diacetate may also be converted to a salt of low solubility in body fluids by treatment with a slightly water-soluble pharmaceutically acceptable acid. The acid addition salts of the LH- and FSH-releasing hormone produced by the process of this invention with pharmacologically acceptable acids are biologically fully equivalent to the natural hormone. […]

[4] = system: induction of ovulation in the hamster; experiment: Induction of ovulation in the hamster (Arimura et al., Science 174, 511); assay type: in vivo; details: acid addition salt
Source text: as §1

CC(C)C[C@H](NC(=O)CNC(=O)[C@H](Cc1ccc(O)cc1)NC(=O)[C@H](CO)NC(=O)[C@H](Cc1c[nH]c2ccccc12)NC(=O)[C@H](Cc1c[nH]cn1)NC(=O)[C@@H]1CCC(=O)N1)C(=O)N[C@@H](CCCNC(=N)N)C(=O)N1CCC[C@H]1C(=O)NCC(N)=O [I, 5-oxo-L-prolyl-L-histidyl-L-tryptophyl-L-seryl-L-tyrosylglycyl-L-leucyl-L-arginyl-L-prolylglycinamide]
LH- and FSH-releasing activity relative to the natural hormone (LH- and FSH-releasing [1]): as active as the natural hormone
activity in induction of ovulation relative to the natural hormone [2]: equally active
potency in bioassays relative to the natural product (LH- and FSH-releasing [3]): as potent as the latter
activity in induction of ovulation relative to the natural hormone [4]: equally active
